For series [1], the system named is ICAM-1 endothelial marker. Briefly: ICAM-1 endothelial cell count by immunohistochemistry in retina sections, streptozotocin diabetic retinopathy model, after intravitreal injection. Format: in vivo, Wistar rat. The conditions noted are these: treated (CASE) diabetic rats. The text has this: 2. […] ICAM-1 is a transmembrane protein present in the endothelial cells and practically specific to them. Its immunohistochemical staining allows the endothelial cells present in the different layers of examined tissues to be quantitatively indicated and assessed and it gives us information concerning the vascularization of the examined tissues and the integrity of the vascular wall.
(§1) Pursuant to approval of the Bioethics Committee for Research of the University of Miguel Hernandez de Elche and based on the international standards for the use of animal experimentation, […] confined male Wistar rat specimens weighing 200 grams were induced to suffer diabetes by means of injecting intraperitoneal streptozotocin (75 mg/kg) in a single dose. The animals were monitored during the whole study continuously in terms of weight, blood sugar, loss of hair and formation of cataracts. All the animals were exposed to the same parameters of light, darkness and availability of water and food.
(§2) For the intravitreal injection, the animals were anesthetized with a mixture in a proportion of 1:1 of xylazine hydrochloride (4 mg/kg) and ketamine hydrochloride (10 mg/kg). Under mydriasis with 0.5% tropicamide, the intravitreal injection of the lysine acetylsalicylate solution was carried out under a surgical microscope with a micro injection syringe (Hamilton Co., Reno, Nev.) and a 32 gauge needle at 1 millimeter from the temporal limbus. Only half the diabetic animals were treated with the intravitreal solution, the rest of the animals were left to develop diabetic retinopathy naturally. The process of intravitreal injection was repeated in the same way, technique and dose in the same animals 4 weeks after the initial treatment. Summary of the organization of the experimental test: • Initially, the animals were evaluated prior to including them in the experimental test to discard those with defects or basic ocular changes. • The inducement of diabetes was carried out in all the animals by means of injecting intraperitoneal streptozotocin. • The blood sugar indices were compared at 24 and 48 hours of the injection to assess whether the inducement had been successful. • Once diabetes was confirmed, the animals were divided into two groups formed by 8 rats each. • Following the diabetic retinopathy model in rats, diabetes was left to develop naturally in both groups over the first 12 weeks.
Laminar sections of the retina of all the animals were carried out, being exposed to the action of 4% formaldehyde preservatives. […] After fixing the different sections of stained tissue, the positively stained molecules and the amount of blood vessels present were counted under an optical microscope (Leica® microsystem) with 10× magnification. […]

The subject of a further series is retina. Set-up: species or system Wistar rat. The conditions noted are these: rat, in vivo. Here is the method:
as §2, with “The process of intravitreal injection was repeated in the same way, technique and dose in the same animals 4 weeks after the initial treatment.” left out, “weeks. […]” for “weeks.”

The next series deals with CD18 leucocyte marker. Briefly: CD18 leucocyte count by immunohistochemistry in retina sections, streptozotocin diabetic retinopathy model, after intravitreal injection. The series is classed as in vivo, Wistar rat. The conditions noted are these: for CD18 count: treated (CASE) diabetic rats.
Text: 1. CD18 leucocyte marker: the leucocyte is the main effector cell of the inflammatory response of the tissues, something which also occurs in the retina. CD18 is a surface molecule which is expressed in the membranes of the leucocytes activated in tissues where there is inflammation, as is the case with the diabetic retina. Determine its absolute and relative number helps to know whether the injected solution is capable of reducing the presence of leucocytes activated in determined layers of the retina as part of their anti-inflammatory action.
as §1, §2
(§3) Laminar sections of the retina of all the animals were carried out, being exposed to the action of 4% formaldehyde preservatives. For the marking of the endothelial cells, an anti-ICAM1 monoclonal antibody was used, we also used anti-CD18 monoclonal antibodies for the staining of the leucocytes. After fixing the different sections of stained tissue, the positively stained molecules and the amount of blood vessels present were counted under an optical microscope (Leica® microsystem) with 10× magnification.
For the purposes of assessing significant differences between the different regions of the retina, in all the tissues, the cell and vessel counts corresponding to the central retina (between optical nerve and macular area) and those corresponding to the peripheral retina (outside of the vascular arches) were carried out separately. These counts were specifically carried out on two layers of the retina: the external plexiform layer and the ganglion cell layer.
The U Mann-Whitney contrast test was used for independent samples. To contrast the correlation between the variables, the Spearman test was used.

In series [2] the test system is blood vessels of the retina. The series is described as follows: Vascular density (blood vessel count per tissue section) in retina, streptozotocin diabetic retinopathy model, after intravitreal injection. The series is classed as in vivo, Wistar rat. Conditions: for VESSELS count: treated (CASE) diabetic rats.
Text: 3. Vascular density: the chronic inflammation caused in diabetic retinopathy involves obliteration and death of the blood vessels. […] This scenario is a final stage of the phenomenon known as diabetic microangiopathy. Thus, determining the number of vessels present in each section of tissue can give us information concerning whether or not the medicament is capable of positively or negatively influencing the capillary density of the retina (vessels/portion of tissue).
as §1, §2, §3
For the purposes of assessing significant differences between the different regions of the retina, in all the tissues, the cell and vessel counts corresponding to the central retina (between optical nerve and macular area) and those corresponding to the peripheral retina (outside of the vascular arches) were carried out separately. These counts were specifically carried out on two layers of the retina: the external plexiform layer and the ganglion cell layer. […]

Where [3] appears, read: central retina, external plexiform layer, 25 micrograms intravitreal at weeks 12 and 16, sacrifice week 20.
Setting [4] is: peripheral retina, external plexiform layer.
Setting [5] is: peripheral retina, ganglion layer.
Where [6] appears, read: treated animals, central retina (text says plexiform layer), range 3-6.

With `CC(=O)Oc1ccccc1C(=O)O` [lysine acetylsalicylate], the ICAM1 count in series [1] (setting [3]) is 15.0 (14.0-17.5); in series [1] (central retina, ganglion layer) it was 4.0 (3.0-5.0); in series [1] (setting [4]) it was 9.0 (7.0-11.0); in series [1] (setting [5]), 2.0 (1.3-3.0). Moreover, the “signs of medicament toxicity (de-structuring of retinal layers, absence of photoreceptor cells, histological alterations of optical nerve)” value in the series with retina is “No tissues were found to have signs that showed alterations suggesting toxicity”. Also, the CD18 count in the series with CD18 leucocyte marker (setting [3]) is on record as 16.5 (14.0-18.0); with CD18 leucocyte marker (central retina, ganglion layer), 5.0 (3.0-6.0); in the series with CD18 leucocyte marker (setting [4]), 8.0 (6.0-9.0); in the series with CD18 leucocyte marker (setting [5]), 3.0 (2.0-4.0). In the series with CD18 leucocyte marker (setting [6]), the “CD18 count, average” value is 5. Also, in the series with CD18 leucocyte marker (treated group, central retina, expected at least 10 leucocytes per field), the “leucocytes per field relative to number expected from vessel count (regression model)” value is given as “half the leucocytes which would be expected”. The VESSELS count was 9.0 (7.0-11.0) in series [2] (setting [3]); 5.0 (2.8-6.0) in series [2] (central retina, ganglion layer); 6.0 (5.0-7.0) in series [2] (setting [4]); 3.0 (1.8-4.0) in series [2] (setting [5]). For the same molecule, in series [2] (setting [6]), the “vessels per tissue section, average” value came to 5.
